Test [1] deals with Rat CC14 liver damage model. The experiment in a line: Rat CC14 liver damage model (chronic liver fibrosis). The class given is in vivo, SD rat. The arrangement: Liver parameters: unit not given here. Particulars: Gan-li-xin 25 mg/kg iv, once a day for 2 weeks from week 5. As for the experimental part:
To evaluate the protective effect of peptide SEQ ID NO:1 on liver damage, we used chronic liver fibrosis model (rat CC14 model) for efficacy evaluation.
Rat CC14 liver damage model
(1) Control group: saline, sc, 2 ml/kg, 10 rats
(2) model group: 40% CC14, sc, 2 ml/kg, 17 rats
(3) Gan-li-xin group: 25 mg/kg, iv, 10 ml/kg, 15 rats
(4) Prevention, high dose group: 50 μg peptide SEQ ID NO:1/kg, iv, 10 ml/kg, 17 rats
(5) Prevention, low dose group: 10 μg peptide SEQ ID NO:1/kg, iv, 10 ml/kg, 17 rats
(6) Treatment, high dose group: 100 μg peptide SEQ ID NO:1/kg, iv, 10 ml/kg, 17 rats
(7) Treatment, high dose group: 20 μg peptide SEQ ID NO:1/kg, iv, 10 ml/kg, 17 rats
Except for control group, inject 40% CC14 subcutaneously twice (Tuesday, and Friday) every week in Group (2) to (6), drug volume (0.2 ml/100 g, the first time 0.5 ml/100 g). CC14 Model construction is 6 weeks. Parallel to the model construction, inject intravenously peptide SEQ ID NO:1 at 50 μg/kg and 10 μg/kg in group (4) and (5), respectively, once a day for 6 weeks. For Group (3), (6), and (7), starting from week 5, inject Gan-li-xin 25 mg/kg, peptide SEQ ID NO:1 at 100 μg/kg and 20 μg/kg, respectively, once a day, continuously for 2 weeks.
All rats were weighed once a week during model construction and drug injection. According to weight, the dose of drugs is adjusted. 24 hours after the last time of CC14 injection, liver weight parameters were examined.
Blood was extracted from femoral artery and serum was separated. The following parameters were examined: serum alanine aminotransferase (ALT), aspartate aminotransferase (AST), Bilirubin (TB), Alkaline phosphatase (ALP), total protein (TP), albumin (ALB), globulin (G), albumin/globulin ratio (A/G), glucose (GLU), total cholesterol (TCH), triglyceride (TG).
Liver homogenate: to examine cholesterol (TCH), triglyceride (TG), alanine aminotransferase (ALT), and aspartate aminotransferase (AST).
[…], dry at 110 C, examine Hydroxyproline (HPA).
Part of the liver is fixed in formalin for histology examination.

In test [2] the test system is human stomach cancer SGC-7901. Put plainly: Human stomach cancer SGC-7901 xenograph nude mice. Particulars: positive control, 25 mg/kg, once a week, 3 weeks. The class given is in vivo. As for the experimental part: (§1) Experimental animals: Female BALB/cA nude mice, age 35-40 days, weight 18-22 g, provided by Shanghai Silaike Experimental Animal Co. Ltd., certificate number: SOCK (Shanghai) 2007-0005.
(§2) The tumor of xenograph nude mice grew to 100˜300 mm^3. Tumor mice were divided into different groups for drug testing. In the experiment below, there were 12 nude mice in negative control group, and 6 nude mice in the group with tested drug. Tumor diameter was measured three times each week, and mice weight was measured at the same time.
(§3) T/C (relative tumor inhibition rate) % was calculated as below: • (1) tumor volume, TV, calculated as below: TV=½×a×b^2 • A and b are length and width. • (2) relative tumor volume, RTV, calculated as below: RTV=TVt/TV0. • TV0 ? is tumor volume at the beginning of drug use (d0), TVt is tumor volume at later time point. • (3) relative tumor inhibition rate T/C (%), calculate as below:
(§4) [formula] TRTV: treatment group RTV; CRTV: negative control RTV
Peptide SEQ ID No:1 was given through tail vain (IV), at dosing of 1 mg/kg, 0.5 mg/kg, 0.25 mg/kg, 0.125 mg/kg, and 0.0625 mg/kg, 6 times a week. 5-FU was positive control, at dosing of 25 mg/kg, once a week. Negative control was given saline solution. The xenograph nude mice were treated for 3 weeks.

A further test relates to liver cancer (H22). Put plainly: Xenograph liver cancer nude mice model (H22). In kind it is in vivo. Particulars: H22, positive control, 10 mg/kg. As for the experimental part: as §1, §2, §3, §4
The next test concerns human lung cancer A549. Put plainly: Human lung cancer A549 xenograph nude mice. The class given is in vivo. To be noted: positive control, 20 mg/kg, once a week, 3 weeks. The protocol: as §1, §2, §3, §4
Peptide SEQ ID No:1 was given through tail vein (IV), at dosing of 0.5 mg/kg, 0.25 mg/kg, and 0.125 mg/kg, 6 times a week. Docetaxol was positive control, at dosing of 20 mg/kg, once a week. Negative control was given saline solution. The xenograph nude mice were treated for 3 weeks.

Test [3] relates to human breast cancer MDA-MB-435. Put plainly: Human breast cancer MDA-MB-435 xenograph nude mice. Particulars: positive control, 20 mg/kg, once a week, 4 weeks. In kind it is in vivo. As for the experimental part:
as §1, §2, §3, §4
Peptide SEQ ID No:1 was given through tail vein (IV), at dosing of 2 mg/kg, 1 mg/kg, 0.5 mg/kg, 6 times a week. Docetaxol was positive control, at dosing of 20 mg/kg, once a week. Negative control was given saline solution. The xenograph nude mice were treated for 4 weeks.

Take `CC1(C)[C@@H](O[C@H]2O[C@H](C(=O)O)[C@@H](O)[C@H](O)[C@H]2O[C@@H]2O[C@H](C(=O)O)[C@@H](O)[C@H](O)[C@H]2O)CC[C@]2(C)[C@H]3C(=O)C=C4[C@@H]5C[C@@](C)(C(=O)O)CC[C@]5(C)CC[C@@]4(C)[C@]3(C)CC[C@@H]12.N.N` [Gan-li-xin, Diammonium glycyrrhizinate, reference compound]: in test [1], the “ALB (albumin), serum” value is given as 17.9 ± 2.5 g/L; the “ALP (alkaline phosphatase), serum” value is reported as 351.6 ± 134.1 IU/L; the “ALT (alanine aminotransferase), serum” value is 73.6 ± 25 IU/L; the “AST (aspartate aminotransferase), serum” value came to 253.3 ± 69.3 IU/L. Moreover, in test [1], the “Bilirubin, serum” value came out at 3.3 ± 0.6 µmol/L; the “GLU (glucose), serum” value turned out to be 5.4 ± 0.7 mmol/L; the Liver parameters is recorded as 4.4 ± 0.6; the Liver weight turned out to be 11.6 ± 3.5 g. Also, in test [1], the “TCH (total cholesterol), serum” value is reported as 1.7 ± 0.5 mmol/L; the “TG (triglyceride), serum” value amounted to 0.7 ± 0.3 mmol/L; the “TP (total protein), serum” value is 64.8 ± 5.4 g/L; the “hydroxyproline amount in rat liver” value stood at 0.191 ± 0.038 ug/mg wet weight.

With `O=c1[nH]cc(F)c(=O)[nH]1` [Peptide 5-FU, reference compound], the “T/C(%) relative tumor inhibition rate” value in test [2] is 68.71%.

For the compound `CC(=O)O[C@H]1C(=O)[C@@]2(C)[C@H]([C@H](OC(=O)c3ccccc3)[C@]3(O)C[C@H](OC(=O)[C@H](O)[C@@H](NC(=O)c4ccccc4)c4ccccc4)C(C)=C1C3(C)C)[C@]1(OC(C)=O)CO[C@@H]1C[C@@H]2O` [Taxol, reference compound], the “inhibition rate, tumor” value in the test with liver cancer (H22) is approximately 67.8%.

As to `CC(=O)O[C@@]12CO[C@@H]1C[C@H](O)[C@@]1(C)C(=O)[C@H](O)C3=C(C)[C@@H](OC(=O)[C@H](O)[C@@H](NC(=O)OC(C)(C)C)c4ccccc4)C[C@@](O)([C@@H](OC(=O)c4ccccc4)[C@H]21)C3(C)C` [docetaxel, reference compound], the “T/C(%) relative tumor inhibition rate” value in the test with human lung cancer A549 was 18.60%; in test [3], 16.51%.

These data come from US8637467B2, “Pharmaceutical being used for treating cancer and fibrosis disease and the composition and uses thereof” (Wuxi MTLH Biotechnology Co., Ltd., priority 2008, dated 2014).
